Converted amounts (≈) assume the structure as drawn. The source made the active and inactive calls. The rule behind the calls is not given here.
What was measured:
[1] = system: CCRF-CEM; assay: Cell cycle arrest in human CCRF-CEM cells assessed as decrease in proportion of cells in G1 phase at 5 times IC50 measured after 24 hrs by propidium iodide/RNase staining based flow cytometry analysis; assay type: functional
[2] = system: CCRF-CEM; assay: Cell cycle arrest in human CCRF-CEM cells assessed as decrease in proportion of cells in S phase at 5 times IC50 measured after 24 hrs by propidium iodide/RNase staining based flow cytometry analysis; assay type: functional
[3] = system: CCRF-CEM; assay: Cell cycle arrest in human CCRF-CEM cells assessed as increase in G2/M phase accumulation at 5 times IC50 measured after 24 hrs by propidium iodide/RNase staining based flow cytometry analysis; assay type: functional
[4] = system: CCRF-CEM; assay: Induction of mitochondrial membrane depolarization in human CCRF-CEM cells at 5 times IC50 measured after 24 hrs by JC-1 staining based flow cytometry analysis (reference value: 8.4 %); assay type: functional
[5] = system: CCRF-CEM; assay: Induction of apoptosis in human CCRF-CEM cells assessed as decrease in Bcl-2 expression at 5 times IC50 concentration measured after 24 hrs by Western blot analysis; assay type: functional, cell-based
[6] = system: CCRF-CEM; assay: Induction of apoptosis in human CCRF-CEM cells assessed as increase in BAX expression at 5 times IC50 concentration measured after 24 hrs by Western blot analysis; assay type: functional, cell-based
[7] = system: CCRF-CEM; assay: Induction of apoptosis in human CCRF-CEM cells assessed as activation of procaspase 8 at 5 times IC50 concentration measured after 24 hrs by Western blot analysis; assay type: functional, cell-based
[8] = system: CCRF-CEM; assay: Induction of apoptosis in human CCRF-CEM cells assessed as activation of PARP cleavage at 5 times IC50 concentration measured after 24 hrs by Western blot analysis; assay type: functional, cell-based
[9] = system: CCRF-CEM; assay: Induction of apoptosis in human CCRF-CEM cells assessed as activation of caspase 7 at 5 times IC50 concentration measured after 24 hrs by Western blot analysis; assay type: functional, cell-based
[10] = system: CCRF-CEM; assay: Induction of apoptosis in human CCRF-CEM cells assessed as activation of caspase 3 at 5 times IC50 concentration measured after 24 hrs by Western blot analysis; assay type: functional, cell-based
[11] = system: CCRF-CEM; assay: Induction of apoptosis in human CCRF-CEM cells assessed as increase in caspase 3/7 activity using Ac-DEVD-AMC as substrate at 5 times IC50 concentration measured after 24 hrs by fluorescence assay; assay type: functional, cell-based
[12] = system: CCRF-CEM; assay: Induction of apoptosis in human CCRF-CEM cells assessed as necrotic cells at 5 times IC50 concentration measured after 24 hrs by AnnexinV-FITC/propidium iodide staining based flow cytometry analysis (reference value: 0.1 %); assay type: functional
[13] = system: CCRF-CEM; assay: Induction of apoptosis in human CCRF-CEM cells assessed as late apoptotic cells at 5 times IC50 concentration measured after 24 hrs by AnnexinV-FITC/propidium iodide staining based flow cytometry analysis (reference value: 0.1 %); assay type: functional
[14] = system: CCRF-CEM; assay: Induction of apoptosis in human CCRF-CEM cells assessed as early apoptotic cells at 5 times IC50 concentration measured after 24 hrs by AnnexinV-FITC/propidium iodide staining based flow cytometry analysis (reference value: 2.8 %); assay type: functional
[15] = system: CCRF-CEM; assay: Induction of apoptosis in human CCRF-CEM cells assessed as viable cells at 5 times IC50 concentration measured after 24 hrs by AnnexinV-FITC/propidium iodide staining based flow cytometry analysis (reference value: 97 %); assay type: functional
[16] = Solubility of compound in 10 % DMSO in water by HPLC-MS analysis; assay type: physicochemical
[17] = Solubility of compound in 0.5 % DMSO in water by HPLC-MS analysis; assay type: physicochemical
[18] = Solubility of compound in 5 % DMSO in water by HPLC-MS analysis; assay type: physicochemical
[19] = Protein binding in human plasma at 10 uM measured after 4 hrs by rapid equilibrium dialysis; assay type: ADME, cell-free; conditions: read-out: PPB (converted)
[20] = Permeability of compound in PBS buffer assessed as permeability coefficient at pH 7.4 incubated for 18 hrs by PAMPA based RF-MS analysis; assay type: ADME; conditions: pH 7.4, 18 h
[21] = Microsomal stability in human liver microsomes assessed as parent compound remaining at 2 uM incubated for 60 mins by RF-MS analysis; assay type: ADME, Microsome; conditions: read-out: Stability
[22] = Microsomal stability in human liver microsomes assessed as parent compound remaining at 2 uM incubated for 30 mins by RF-MS analysis; assay type: ADME, Microsome; conditions: read-out: Stability
[23] = Microsomal stability in human liver microsomes assessed as parent compound remaining at 2 uM incubated for 15 mins by RF-MS analysis; assay type: ADME, Microsome; conditions: read-out: Stability
[24] = Stability in human plasma assessed as parent compound remaining at 2 uM incubated for 60 mins by RF-MS analysis; assay type: ADME, cell-free; conditions: read-out: Stability
[25] = Stability in human plasma assessed as parent compound remaining at 2 uM incubated for 120 mins by RF-MS analysis; assay type: ADME, cell-free; conditions: read-out: Stability
[26] = Stability in human plasma assessed as parent compound remaining at 2 uM incubated for 30 mins by RF-MS analysis; assay type: ADME, cell-free; conditions: read-out: Stability
[27] = Stability in human plasma assessed as parent compound remaining at 2 uM incubated for 15 mins by RF-MS analysis; assay type: ADME, cell-free; conditions: read-out: Stability
[28] = Chemical stability of compound in PBS buffer assessed as parent compound remaining at 2 uM at pH 7.4 and 37 degC incubated for 120 mins by RF-MS analysis; assay type: physicochemical; conditions: read-out: Stability
[29] = Chemical stability of compound in PBS buffer assessed as parent compound remaining at 2 uM at pH 7.4 and 37 degC incubated for 60 mins by RF-MS analysis; assay type: physicochemical; conditions: read-out: Stability
[30] = Chemical stability of compound in PBS buffer assessed as parent compound remaining at 2 uM at pH 7.4 and 37 degC incubated for 15 mins by RF-MS analysis; assay type: physicochemical; conditions: read-out: Stability
[31] = Chemical stability of compound in PBS buffer assessed as parent compound remaining at 2 uM at pH 7.4 and 37 degC incubated for 30 mins by RF-MS analysis; assay type: physicochemical; conditions: read-out: Stability
[32] = system: MRC5; assay: Cytotoxicity against human MRC5 cells incubated for 72 hrs by MTS assay; assay type: cell-based; conditions: MRC5, 72 h
[33] = system: U2OS; assay: Cytotoxicity against human U2OS cells incubated for 72 hrs by MTS assay; assay type: functional, cell-based
[34] = system: BJ; assay: Cytotoxicity against human BJ cells incubated for 72 hrs by MTS assay; assay type: cell-based
[35] = system: A549; assay: Cytotoxicity against human A549 cells incubated for 72 hrs by MTS assay; assay type: functional, cell-based; conditions: A549, 72 h
[36] = system: K562; assay: Cytotoxicity against human K562 cells incubated for 72 hrs by MTS assay; assay type: functional, cell-based; conditions: K562, 72 h
[37] = Cytotoxicity against human K562-TAX cells incubated for 72 hrs by MTS assay; assay type: functional, cell-based
[38] = system: HCT-116; assay: Cytotoxicity against p53 knockout human HCT116 cells incubated for 72 hrs by MTS assay; assay type: functional, cell-based; conditions: HCT-116, 72 h
[39] = system: HCT-116; assay: Cytotoxicity against human HCT116 cells incubated for 72 hrs by MTS assay; assay type: functional, cell-based; conditions: HCT-116, 72 h
[40] = system: CCRF-CEM; assay: Cytotoxicity against human CCRF-CEM cells incubated for 72 hrs by MTS assay; assay type: functional, cell-based
[41] = Cytotoxicity against human CEM-DNR-bulk cells incubated for 72 hrs by MTS assay; assay type: functional, cell-based

- solubility [16]: 83 µM (≈ 44.3 µg/mL)
- solubility [17]: 24 µM (≈ 12.8 µg/mL)
- solubility [18]: 30 µM (≈ 16 µg/mL)
- fraction unbound at 4 h, 10 µM [19]: 0.176
- log(permeability) [20]: -4.93
- remaining at 1 h, 2 µM [21]: 66.2%
- remaining at 0.5 h, 2 µM [22]: 80.7%
- remaining at 0.25 h, 2 µM [23]: 93.4%
- remaining at 1 h, 2 µM [24]: 94.9%
- remaining at 2 h, 2 µM [25]: 85.5%
- remaining at 0.5 h, 2 µM [26]: 98.2%
- remaining at 0.25 h, 2 µM [27]: 98.5%
- remaining at 2 h, 2 µM [28]: 88.5%
- remaining at 1 h, 2 µM [29]: 99.1%
- remaining at 0.25 h, 2 µM [30]: 99.6%
- remaining at 0.5 h, 2 µM [31]: 99.2%
SMILES: C[C@H]1[C@H](C)CC[C@]2(C(=O)O)CC[C@]3(C)C(=CC[C@@H]4[C@@]5(C)CC(Br)C(=O)C(C)(C)[C@@H]5CC[C@]43C)[C@H]12 (stereo partly specified)
- Activity [1]: Active
- Activity [2]: Active
- Activity [3]: Active
- Activity [4]: 36.3%
- Activity [5]: Active
- Activity [6]: Active
- Activity [7]: Active
- Activity [8]: Active
- Activity [9]: Active
- Activity [10]: Active
- Activity [11]: Active
- Activity [12]: 0.4%
- Activity [13]: 2.4%
- Activity [14]: 16.5%
- Activity [15]: 80.7%
- IC50 [32]: 29.3 µM
- IC50 [33]: 20.7 µM
- IC50 [34]: 49.5 µM
- IC50 [35]: 27.6 µM
- IC50 [36]: 38.8 µM
- IC50 [37]: 25.1 µM
- IC50 [38]: 29.8 µM
- IC50 [39]: 28.4 µM
- IC50 [40]: 3.6 µM
- IC50 [41]: 21.8 µM

From ChEMBL document CHEMBL4312011, “Synthesis and biological evaluation of triterpenoid thiazoles derived from betulonic acid, dihydrobetulonic acid, and ursonic acid” (Eur J Med Chem, 2020)
